These results are taken from patent US8722849B2, “Polypeptides” (Novo Nordisk A/S, priority 2011, dated 2014).

The structures appear in SMILES notation. Values after ≈ are worked out from the molar mass of the structure shown. Where two headings read alike, the source gives them in different places. Starred links: 1 amine or outer side, 2 acyl side, 3 side chain; linkers in the order of their positions; H or OH if unused. Positions of bridges follow the written chain, without caps; N, C: chain ends. Residues, ends and D or L forms follow the SMILES beside them. *: point of attachment. C20 diacid = O=C(O)CCCCCCCCCCCCCCCCCCC(=O)*; γGlu = O=C(O)[C@H](CCC(=O)[*:2])N[*:1]

For data set [1], the target named is T1, human amylin receptor (amylin 3(a) receptor: human calcitonin receptor + RAMP-3) (Homo sapiens, UniProt O60896+P30988).
T1 construct: expressed in transfected cells; host or cells: BHK570
T1 sequence (P30988 25-474): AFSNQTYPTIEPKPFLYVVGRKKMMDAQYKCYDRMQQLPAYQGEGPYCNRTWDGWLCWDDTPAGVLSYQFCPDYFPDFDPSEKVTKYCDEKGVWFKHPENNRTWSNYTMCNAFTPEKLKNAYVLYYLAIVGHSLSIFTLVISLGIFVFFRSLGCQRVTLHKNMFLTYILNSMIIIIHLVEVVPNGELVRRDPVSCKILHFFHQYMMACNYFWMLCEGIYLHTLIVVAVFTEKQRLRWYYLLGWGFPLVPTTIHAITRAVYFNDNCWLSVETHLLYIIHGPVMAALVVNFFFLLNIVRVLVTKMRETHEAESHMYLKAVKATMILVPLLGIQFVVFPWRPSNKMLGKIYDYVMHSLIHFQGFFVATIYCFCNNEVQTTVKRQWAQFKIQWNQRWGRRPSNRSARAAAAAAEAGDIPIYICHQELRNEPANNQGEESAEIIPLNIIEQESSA
T1 sequence (O60896 24-148 partner): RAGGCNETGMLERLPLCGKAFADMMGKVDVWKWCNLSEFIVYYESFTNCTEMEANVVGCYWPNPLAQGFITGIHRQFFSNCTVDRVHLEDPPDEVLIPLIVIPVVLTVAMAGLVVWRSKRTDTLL
In words: Assay (II)a functional CRE-luciferase assay, human amylin receptor. The format is cell-based. The settings on record: Table 2; BHK amylin 3(a)-receptor/CRE-luc cells.

Data set [2] concerns the target T2, human calcitonin receptor (Homo sapiens, UniProt P30988).
T2 construct: expressed in transfected cells; host or cells: BHK570
T2 sequence (P30988 25-474): T1 sequence (P30988 25-474)
Description: Assay (II)a functional CRE-luciferase assay, human calcitonin receptor. The class given is cell-based.

Data set [3] can be described thus: Assay (III) ThT fibrillation assay for physical stability. The class given is physicochemical. A digest of the protocol: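 Freshly prepared formulations, pH-adjusted, with 1 μM ThT; four or eight replicates incubated at 37 °C under 960 rpm orbital shaking. Fluorescence (ex 444/em 485 nm) read every 20 min; […]. Peptide concentration measured by RP-HPLC before and after the run.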

Data set [4] is described as follows: Assay (IV) determination of solubility. The format is physicochemical. The method, boiled down: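 Eight 100 mM buffers (glycylglycine pH 3.0–5.0, bistrispropane pH 6.0–8.0) each received an equal volume of polypeptide dissolved in water at ~500 nmol/ml. Soluble polypeptide was measured by HPLC following 18 hours at room temperature and centrifugation.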
Setting [5] is: bistrispropane buffer, pH 6, pH 6.0, read-out: Solubility pH 6.0.
Where [6] appears, read: bistrispropane buffer, pH 6.5, pH 6.5, read-out: Solubility pH 6.5.
[7] abbreviates: bistrispropane buffer, pH 7, pH 7.0, 18 hours at room temperature, Table 3, read-out: Solubility pH 7.0.
[8] abbreviates: bistrispropane buffer, pH 7, pH 7.0, read-out: Solubility pH 7.0.
[9] abbreviates: bistrispropane buffer, pH 7.5, pH 7.5, read-out: Solubility pH 7.5.
[10] abbreviates: bistrispropane buffer, pH 8, pH 8.0, read-out: Solubility pH 8.0.
The mark [11] stands for this setting: glycylglycine buffer, pH 3, pH 3.0, read-out: Solubility pH 3.0.
The mark [12] stands for this setting: glycylglycine buffer, pH 4, pH 4.0, 18 hours at room temperature, Table 2, read-out: Solubility pH 4.0.
[13] abbreviates: glycylglycine buffer, pH 4, pH 4.0, read-out: Solubility pH 4.0.
The mark [14] stands for this setting: glycylglycine buffer, pH 5, pH 5.0, read-out: Solubility pH 5.0.
[15] abbreviates: Table 7, human calcitonin (CTa) receptor.

As usually defined, the EC50 is the concentration giving half of the maximal effect. The term solubility denotes the concentration that dissolves in the medium under given conditions. In the case of `CC[C@H](C)[C@H](NC(=O)[C@@H]1CCCN1C(=O)CNC(=O)[C@H](Cc1ccccc1)NC(=O)[C@H](CCC(N)=O)NC(=O)[C@H](CCC(N)=O)NC(=O)[C@H](CO)NC(=O)[C@H](CO)NC(=O)[C@H](Cc1c[nH]cn1)NC(=O)[C@H](CCCNC(=N)N)NC(=O)[C@H](CC(C)C)NC(=O)[C@H](Cc1ccccc1)NC(=O)[C@H](CCC(=O)O)NC(=O)[C@H](C)NC(=O)[C@H](CC(C)C)NC(=O)[C@H](CCCNC(=N)N)NC(=O)[C@H](CCC(N)=O)NC(=O)[C@@H](NC(=O)[C@H](C)NC(=O)[C@@H]1CSSC[C@H](NC(=O)[C@H](CCC(=O)O)NC(=O)[C@H](CCCNC(=N)N)NC(=O)[C@H](CCC(=O)O)NC(=O)CC[C@H](NC(=O)CCCCCCCCCCCCCCCCCCC(=O)O)C(=O)O)C(=O)N[C@@H](CC(N)=O)C(=O)N[C@@H]([C@@H](C)O)C(=O)N[C@@H](C)C(=O)N[C@@H]([C@@H](C)O)C(=O)N1)[C@@H](C)O)C(=O)N[C@@H](CC(C)C)C(=O)N1CCC[C@H]1C(=O)N1CCC[C@H]1C(=O)N[C@H](C(=O)N[C@@H](CCC(N)=O)C(=O)N[C@H](C(=O)NCC(=O)N[C@@H](CO)C(=O)N[C@@H](CCC(N)=O)C(=O)N[C@H](C(=O)N1CCC[C@H]1C(N)=O)[C@@H](C)O)C(C)C)[C@@H](C)O` [Example 164, N-alpha-[(S)-4-Carboxy-4-(19-carboxynonadecanoylamino)butyryl]-Glu-Arg-[Glu1,Glu14,Arg17,Gln21,Gln22,Gln31,Gln35,Pro37]-pramlintide] ({C20 diacid-γGlu}-ERECNTATCATQRLAEFLRHSSQQFGPILPPTQVGSQTP-NH2; disulfide 4-9 (inferred)), the EC50 is 1.71 nM in data set [1] and 3.57 nM in data set [2] (Table 11, read-out: CTa receptor human EC50). Moreover, the “ThT pH 4.0 lag time” value in data set [3] (Table 8), in data set [3] (Table 9) and in data set [3] (ThT fibrillation assay) was >45 h in each case. Also, the “ThT pH 4.0 lag time (h)” value in data set [3] (ThT fibrillation assay) is listed as >45 h. Further, the solubility at 18 h was > 200 µM in data set [4] (setting [5]); > 200 µM in data set [4] (setting [6]); > 200 µM in data set [4] (setting [7]); > 200 µM in data set [4] (bistrispropane buffer, pH 7, pH 7.0, Table 8, read-out: Solubility pH 7.0); > 200 µM in data set [4] (bistrispropane buffer, pH 7, pH 7.0, Table 9, read-out: Solubility pH 7.0); > 200 µM in data set [4] (setting [8]). In addition, the solubility at 18 h in data set [4] (bistrispropane buffer, pH 7.5, pH 7.5, Table 9, read-out: Solubility pH 7.5) was > 200 µM; in data set [4] (setting [9]), > 200 µM; in data set [4] (setting [10]), > 200 µM; in data set [4] (setting [11]) it was > 200 µM; in data set [4] (setting [12]) it was > 200 µM; in data set [4] (setting [13]) it was > 200 µM. In addition, the solubility at 18 h in data set [4] (setting [14]) is > 200 µM.

Regarding `CC[C@H](C)[C@H](NC(=O)[C@@H]1CCCN1C(=O)CNC(=O)[C@H](Cc1ccccc1)NC(=O)[C@H](CC(N)=O)NC(=O)[C@H](CC(N)=O)NC(=O)[C@H](CO)NC(=O)[C@H](CO)NC(=O)[C@H](Cc1c[nH]cn1)NC(=O)[C@H](Cc1c[nH]cn1)NC(=O)[C@H](CC(C)C)NC(=O)[C@H](Cc1ccccc1)NC(=O)[C@H](CCC(=O)O)NC(=O)[C@H](C)NC(=O)[C@H](CC(C)C)NC(=O)[C@H](CCCNC(=N)N)NC(=O)[C@H](CCC(N)=O)NC(=O)[C@@H](NC(=O)[C@H](C)NC(=O)[C@@H]1CSSC[C@H](NC(=O)[C@H](Cc2c[nH]cn2)NC(=O)[C@H](CCC(=O)O)NC(=O)CC[C@H](NC(=O)CCCCCCCCCCCCCCCCCCC(=O)O)C(=O)O)C(=O)N[C@@H](CC(N)=O)C(=O)N[C@@H]([C@@H](C)O)C(=O)N[C@@H](C)C(=O)N[C@@H]([C@@H](C)O)C(=O)N1)[C@@H](C)O)C(=O)N[C@@H](CC(C)C)C(=O)N1CCC[C@H]1C(=O)N1CCC[C@H]1C(=O)N[C@H](C(=O)N[C@@H](CC(N)=O)C(=O)N[C@H](C(=O)NCC(=O)N[C@@H](CO)C(=O)N[C@@H](CC(N)=O)C(=O)N[C@H](C(=O)N[C@@H](Cc1ccc(O)cc1)C(N)=O)[C@@H](C)O)C(C)C)[C@@H](C)O` [Example 40, N-alpha-[(S)-4-Carboxy-4-(19-carboxynonadecanoylamino)butyryl]-Glu-[His1,Glu14,His17]-pramlintide] ({C20 diacid-γGlu}-EHCNTATCATQRLAEFLHHSSNNFGPILPPTNVGSNTY-NH2; disulfide 3-8 (inferred); C-terminus assumed), the EC50 in data set [1] is 0.248 nM; in data set [2] (setting [15]), 0.439 nM. The “ThT pH 4.0 lag time (h)” value in data set [3] (ThT fibrillation assay) is 7 h. The solubility at 18 h in data set [4] (setting [5]), in data set [4] (setting [6]), in data set [4] (setting [7]), in data set [4] (setting [8]), in data set [4] (setting [9]) and in data set [4] (setting [10]) was > 200 µM each time. Besides, the solubility at 18 h in data set [4] (setting [11]), in data set [4] (setting [12]), in data set [4] (setting [13]) and in data set [4] (setting [14]) was > 200 µM in each case.

For `CC[C@H](C)[C@H](NC(=O)[C@@H]1CCCN1C(=O)CNC(=O)[C@H](Cc1ccccc1)NC(=O)[C@H](CC(N)=O)NC(=O)[C@H](CC(N)=O)NC(=O)[C@H](CO)NC(=O)[C@H](CO)NC(=O)[C@H](Cc1c[nH]cn1)NC(=O)[C@@H](NC(=O)[C@H](CC(C)C)NC(=O)[C@H](Cc1ccccc1)NC(=O)[C@H](CCC(=O)O)NC(=O)[C@H](C)NC(=O)[C@H](CC(C)C)NC(=O)[C@H](CCCNC(=N)N)NC(=O)[C@H](CCC(N)=O)NC(=O)[C@@H](NC(=O)[C@H](C)NC(=O)[C@@H]1CSSC[C@H](NC(=O)[C@H](Cc2c[nH]cn2)NC(=O)[C@H](Cc2c[nH]cn2)NC(=O)[C@H](Cc2c[nH]cn2)NC(=O)CC[C@H](NC(=O)CCCCCCCCCCCCCCCCCCC(=O)O)C(=O)O)C(=O)N[C@@H](CC(N)=O)C(=O)N[C@@H]([C@@H](C)O)C(=O)N[C@@H](C)C(=O)N[C@@H]([C@@H](C)O)C(=O)N1)[C@@H](C)O)C(C)C)C(=O)N[C@@H](CC(C)C)C(=O)N1CCC[C@H]1C(=O)N1CCC[C@H]1C(=O)N[C@H](C(=O)N[C@@H](CC(N)=O)C(=O)N[C@H](C(=O)NCC(=O)N[C@@H](CO)C(=O)N[C@@H](CC(N)=O)C(=O)N[C@H](C(=O)N[C@@H](Cc1ccc(O)cc1)C(N)=O)[C@@H](C)O)C(C)C)[C@@H](C)O` [Example 20, N-alpha-[(S)-4-Carboxy-4-(19-carboxynonadecanoylamino)butyryl]-His-His-[His1,Glu14]-pramlintide] ({C20 diacid-γGlu}-HHHCNTATCATQRLAEFLVHSSNNFGPILPPTNVGSNTY-NH2; disulfide 4-9 (inferred); C-terminus assumed), the 50% effective concentration (EC50) in data set [1] was found to be 0.151 nM; in data set [2] (setting [15]), 0.74 nM. In addition, in data set [3] (ThT fibrillation assay), the “ThT pH 4.0 lag time (h)” value is reported as 1.7 h. Moreover, the solubility at 18 h was 6 µM (≈ 28.2 µg/mL) in data set [4] (setting [5]); 1 µM (≈ 4.7 µg/mL) in data set [4] (setting [8]); 13 µM (≈ 61.1 µg/mL) in data set [4] (setting [9]); 73 µM (≈ 343 µg/mL) in data set [4] (setting [10]); > 200 µM in data set [4] (setting [11]); > 200 µM in data set [4] (setting [12]). Also, the solubility at 18 h in data set [4] (setting [13]) and in data set [4] (setting [14]) was > 200 µM in each case.
